We go through two compounds from patent EP2235030B1, “COMPOUND OF THE DISACCHARIDE TYPE COMPOSITION COMPRISING AND METHOD FOR PRODUCING SUCH A COMPOUND” (Université de Picardie Jules Verne, priority 2007, dated 2009).

Marks after values point to notes of the source that are not given here.

Assay [1] deals with Macrosiphum euphorbiae (Thomas). In words: Aphid neonates reared on artificial diet supplemented with DPS2: demographic parameters and body size. In kind it is in vivo. Particulars: for rm: intrinsic rate of population increase. On the procedure:
(§1) Deux espèces de pucerons Myzus persicae (Sulzer) et Macrosiphum euphorbiae (Thomas) ont été utilisées pour cette étude. Des adultes ont été isolés et placés dans des cages de PVC sur milieu artificiel pendant une journée afin de synchroniser la descendance. Les néonates, âgés de moins de 24 h sont alors placés sur milieu artificiel contenant des concentrations variant de 0 à 100 µg.mL^-1 du composé DPS2, synthétisé précédemment, selon un protocole décrit par Saguez J, Dubois F, Vincent C, Laberche JC, Sangwan-Norreel BS et Giordanengo P (2006), dans l'article intitulé « Differential aphicidal effects of chitinase inhibitors on the polyphagous homopteran Myzus pensicae (Sulzer) » et publié dans Pest Manag Sci 62: 1150-1154. Plusieurs paramètres démographiques sont relevés quotidiennement afin de déterminer la durée du développement larvaire, la mortalité larvaire et la fécondité et de calculer un paramètre synthétique, le rm (taux intrinsèque d'accroissement des populations) et le temps de doublement des populations. Un minimum de 50 pucerons de chaque espèce est testé par traitement et les individus sont suivis quotidiennement. La taille des pucerons a été mesurée une semaine après le début de l'expérience, sous loupe binoculaire à l'aide d'un oculaire biométrique. Les effets du DPS2 sur la survie larvaire sont analysés par un test du χ^2 de Pearson. Une analyse de variance (ANOVA monofactorielle) a été réalisée avec le logiciel Statistica 5.5 (StatSoft®, Tulsa, Oklahoma, USA) pour tester les effets du DPS2 sur les paramètres démographiques des aphides. Les paramètres significativement altérés sont ensuite analysés par un test de Fisher (PLSD) au seuil de significativité P <0,05.
(§2) Dans les tableaux I, II et III qui suivent, les résultats sont exprimés sous la forme : moyenne ± écart-type. L'effet significatif (*) été testé par une analyse de variance monofactorielle (F) à P<0.05. Les valeurs de même rang suivies par une même lettre indiquent qu'il n'existe pas de différence significative d'après le test du PLSD de Fisher (P<0.05).

Assay [2] deals with pucerons M. persicae et M. euphorbiae. Kind of assay: Aphid artificial diet test, statements made for both aphid species without distinction. In kind it is in vivo, Myzus persicae, Macrosiphum euphorbiae. On the procedure:
as §1

Assay [3] has as its system Myzus persicae (Sulzer). Kind of assay: Aphid neonates reared on artificial diet supplemented with DPS2: demographic parameters. In kind it is in vivo. Particulars: for Temps de doublement de la population / Fécondité journalière / Période préreproductive / rm: mean ± SD; for rm: intrinsic rate of population increase. On the procedure: as §1, §2
The test system of assay [4] is chitinases d'insectes et de champignons. Particulars: competitive inhibition; cited from earlier work.
[5] abbreviates: DPS2 1 µg.mL^-1 in artificial diet, mean ± SD.
Where [6] appears, read: DPS2 10 µg.mL^-1 in artificial diet, mean ± SD.
Where [7] appears, read: DPS2 50 µg.mL^-1 in artificial diet, mean ± SD.
Where [8] appears, read: DPS2 100 µg.mL^-1 in artificial diet, mean ± SD.
The mark [9] stands for this setting: DPS2 1 µg.mL^-1 in artificial diet.
Where [10] appears, read: DPS2 10 µg.mL^-1 in artificial diet.
Where [11] appears, read: DPS2 50 µg.mL^-1 in artificial diet.
Where [12] appears, read: DPS2 100 µg.mL^-1 in artificial diet.

In the case of `CCCOC1O[C@H](COS(=O)(=O)O)[C@@H](O[C@@H]2O[C@H](CO)[C@@H](O)[C@H](O)[C@H]2NC(C)=O)[C@H](O)[C@H]1OC(C)=O` (stereo partly shown) [DPS2], the taille des pucerons in assay [1] (DPS2 1 µg.mL-1 in artificial diet, after 7 days, mean ± SD) is listed as 2,2 ± 0,3^a mm; in assay [1] (DPS2 10 µg.mL-1 in artificial diet, after 7 days, mean ± SD) it was 2,1 ± 0,3^b mm; in assay [1] (DPS2 50 µg.mL-1 in artificial diet, after 7 days, mean ± SD), 1,8 ± 0,2^bc mm; in assay [1] (DPS2 100 µg.mL-1 in artificial diet, after 7 days, mean ± SD), 1,7 ± 0,2^c mm; in assay [1] (from 10 µg.mL^-1 upwards), “réduite”. Moreover, the “Temps de doublement de la population” value in assay [1] (DPS2 1 µg.mL^-1, mean ± SD) was 4,7 ± 1,0^ab jours; in assay [1] (DPS2 10 µg.mL^-1, mean ± SD), 5,5 ± 1,3^b jours; in assay [1] (DPS2 50 µg.mL^-1, mean ± SD), 8,1 ± 1,6^c jours; in assay [1] (DPS2 100 µg.mL^-1, mean ± SD), 6,5 ± 2,0^c jours; in assay [3] (DPS2 1 µg.mL^-1), 5,6 ± 1,8^b jours; in assay [3] (DPS2 10 µg.mL^-1) it was 5,4 ± 1,2^b b jours. The figures for the “Temps de doublement de la population” value in assay [3] (DPS2 50 µg.mL^-1) and in assay [3] (DPS2 100 µg.mL^-1) were 5,9 ± 1,6^b b jours and 6,5 ± 2,0^a jours, respectively. The “Fécondité journalière” value was 1,16 ± 0,36^a larves.femelles-1 .jour-1 in assay [1] (setting [5]); 1,06 ± 0,34^a larves.femelles-1 .jour-1 in assay [1] (setting [6]); 0,81 ± 0,20^b larves.femelles-1 .jour-1 in assay [1] (setting [7]); 0,73 ± 0,22^b larves.femelles-1 .jour-1 in assay [1] (setting [8]); 0,99 ± 0,27^a larves.femelles-1.jour-1 in assay [3] (setting [9]); 0,91 ± 0,28^b larves.femelles-1.jour-1 in assay [3] (setting [10]). The “Fécondité journalière” value in assay [3] (setting [11]) was 0,74 ± 0,24^bc larves.femelles-1.jour-1; in assay [3] (setting [12]) it was 0,65 ± 0,11^bc larves.femelles-1.jour-1. For the same compound, the “Période préreproductive” value in assay [1] (setting [5]) was 11,3 ± 2,1^a jours; in assay [1] (setting [6]), 12,1 ± 1,6^a jours; in assay [1] (setting [7]), 13,4 ± 1,2^b jours; in assay [1] (setting [8]) it was 13,5 ± 1,6^b jours; in assay [3] (setting [9]), 11,6 ± 1,9^b jours; in assay [3] (setting [10]) it was 10,9 ± 1,5^a jours. Moreover, the “Période préreproductive” value is listed as 11,1 ± 1,4^a jours in assay [3] (setting [11]) and 11,9 ± 1,7^b jours in assay [3] (setting [12]). The mortality at 50 µg/mL in assay [1] (Macrosiphum euphorbiae, 50 µg.mL^-1, read-out: mortalité larvaire) is 49%. Besides, the mortality at 100 µg/mL in assay [1] (Macrosiphum euphorbiae, 100 µg.mL^-1, read-out: mortalité larvaire) came out at 53%. Further, the “augmentation du temps de doublement des populations” value in assay [1] (highest concentrations, 'près de') is approximately 4 jours. For the same compound, the “durée de la période pré-reproductive (augmentation)” value in assay [1] (increase versus control diet, at the highest concentrations) was “deux jours”; in assay [3] (increase versus control diet), “augmentée d'environ une journée”. Also, the rm in assay [1] (DPS2 1 µg.mL^-1, mean ± SD) is on record as 0,16 ± 0,04^b femelles.femelles^-1.jours^-1; in assay [1] (DPS2 10 µg.mL^-1, mean ± SD), 0,13 ± 0,03^b femelles.femelles^-1.jours^-1; in assay [1] (DPS2 50 µg.mL^-1, mean ± SD), 0,09 ± 0,03^c femelles.femelles^-1.jours^-1; in assay [1] (DPS2 100 µg.mL^-1, mean ± SD), 0,08 ± 0,03^c femelles.femelles^-1.jours^-1; in assay [3] (DPS2 1 µg.mL^-1) it was 0,13 ± 0,04^b femelles.femelles^-1 .jours^-1; in assay [3] (DPS2 10 µg.mL^-1), 0,13 ± 0,03^b femelles.femelles^-1 .jours^-1. Moreover, the values for the rm in assay [3] (DPS2 50 µg.mL^-1) and in assay [3] (DPS2 100 µg.mL^-1) were 0,12 ± 0,03^bc femelles.femelles^-1 .jours^-1 and 0,11 ± 0,03^c femelles.femelles^-1 .jours^-1, respectively. Besides, the processus de mue entry in assay [2] (DPS2 between 50 and 100 µg.mL^-1, many aphids die before leaving the old cuticle) is “affectés”. For the same compound, the “taux intrinsèque d'accroissement des populations (rm)” value in assay [2] (both aphid species, including the lowest concentration of 1 µg.mL^-1) is “réduite”. The “concentration dès laquelle les effets aphicides maximum sont obtenus” value in assay [2] (whatever parameter and aphid species, effects similar at 50 and 100 µg.mL^-1) was found to be 50 µg/mL.

Consider allosamidine, for which, in assay [4], the “activité inhibitrice contre les chitinases” value was “puissante activité inhibitrice”.
